Series [1] is described as follows: Precipitation on addition of stock solution to cell culture media. It counts as physicochemical. As for the experimental part: (§1) HaCaT cells were grown in regular culture media as described in example 1 and seeded in 12-well plates with density at 2×10^5 cells per well and 1 ml of culture medium in each well. NRH stock solution was prepared in ethanol at 100 mM (25.6 mg/ml) and stored at −20° C. Stock solutions of NRH esters were made at 50 mM in DMSO (see FIG. 9B for compound info). Cells were treated with NRH esters and NRH at 150 μM for 6 and 16 hrs, washed twice with PB S containing 5 mM EDTA, and then subject to Nicotinamide adenine dinucleotide (NAD) measurement as described in example 23.
HaCaT cells were grown in regular culture media as described above and seeded in 12-well plates with density at 2×10^5 cells per well and 1 ml of culture medium in each well. NRH stock solution was prepared in ethanol at 100 mM (25.6 mg/ml) and stored at −20° C. NRH (200 μM) was used as a positive control. Because of the possible solubility issue related to NRH monoC16, fatty acid-free bovine serum albumin (defatted BSA, Sigma) was used as a carrier for the compound. NRH monoC16 stock solution (100×) was complexed with defatted BSA ([…]) prior to the treatment, resulting in a NRH monoC16 stock solution (10 ×). NRH monoC16 was then added to the culture media giving a final BSA concentration of 100 μM. […] Defatted BSA was also added to the control samples at a final concentration of 100 μM. […]

Series [2] concerns HaCaT cells (a human keratinocyte cell line). The experiment in a line: Intracellular NAD measurement in HaCaT cells (ADPR cyclase enzymatic assay, absorbance 405 nm). Format: cell-based. How it is done:
HaCaT cells (AddexBio Technologies, San Diego, Calif., Passage 16-19) were grown in Medium DMEM/GlutMax (Life technologies, Grand Island, N.Y.) supplemented with 10% FBS (Life technologies) and Non-essential amino acids (NEAA, Life technologies) and then seeded in 12-well plates (Corning, Tewksbury, Mass.) with a density at 2×10^5 cells per well and 2 ml of culture medium in each well for overnight.
Stock solution of dihydronicotinamide riboside (NRH, GSK3008320A, GSK, RTP, NC) was prepared in ethanol at 100 mM (25.6 mg/ml) and stored at −20° C. Cells were treated with different concentrations of NRH for 3 hrs, washed twice with PBS containing 5 mM EDTA, and then subject to Nicotinamide adenine dinucleotide (NAD) measurement. In brief, acetonitrile (ACN) lysis buffer (Ammonium Acetate (50 mM) and 90% acetonitrile) was added to each well (200 μl/well) to lyse the cells at RT for 5-10 mins by gently rotating on a culture plate shaker at a low speed. Enzyme master mix (300 μM of 5-Amino-(3,4′-bipyridin)-6(1H)-one (Inamrinone) (Sigma-Aldrich), a substrate for ADP ribosyl cyclase (ADPR cyclase)) and 30 nM ADPR Cyclase (Sigma, St. Louis, Mo.), 7.5 μM of N-(2-fluoro-4-(methylsulfonyl)phenyl)-2-methyl-6-(thiazol-5-yl)isonicotinamide (a CD38 inhibitor) in 75 mM HEPES pH7 buffer (Life Technologies)) was added to the lysed cells (400 μl of enzyme master mix/well). Enzymatic reaction was incubated at RT for ˜30 min. At the end of incubation, the supernatant (200 μl) of the reaction solution from each well was transferred to each well of a 96-well plate and absorbance was read twice in the 96-well plate at 405 nm using a plate reader (Spectra Maxplus, Molecular Devices, Sunnyvale, Calif.). A mixture of enzyme master mix and ACN extraction solution at 2:1 ratio was used as a blank reference. NAD (Sigma) was used as a positive control.
HaCaT cells were grown as described in example 23 in the regular cell culture DMEM medium as described earlier or in the Epilife medium without nacinamide (Life Technologies). Cells were treated with different concentrations of NRH or niacinamide (NIA, DSM nutritional products) for 3 hrs, washed twice with PBS containing 5 mM EDTA, and then subject to Nicotinamide adenine dinucleotide (NAD) measurement as described in example 23. A mixture of enzyme master mix and ACN extraction solution at 2:1 ratio for a blank reference. NAD (Sigma) was used as a positive control. […] Both the CD38 inhibitor and Niacinamide increased NAD in the HaCaT cells cultured in the Vit B3 depleted culture medium, and the induction of NAD by niacinamide was dose-dependent (solid bars). However, the induction of NAD by niacinamide (highest at ˜1.5 fold) was low compared to those by NRH. Therefore, NRH is a stronger NAD inducer compared to a CD38 inhibitor or Niacinamide.
as §1
HaCaT cells were grown in regular culture media as described above and seeded in 12-well plates with density at 2×10^5 cells per well and 1 ml of culture medium in each well. NRH stock solution was prepared in ethanol at 100 mM (25.6 mg/ml) and stored at −20° C. NRH (200 μM) was used as a positive control. Because of the possible solubility issue related to NRH monoC16, fatty acid-free bovine serum albumin (defatted BSA, Sigma) was used as a carrier for the compound. NRH monoC16 stock solution (100×) was complexed with defatted BSA ([…]) prior to the treatment, resulting in a NRH monoC16 stock solution (10 ×). […]

Series [3] can be described thus: Gravimetric Vapor Sorption (GVS). It counts as physicochemical. As to conditions: 90% RH, 25° C. As for the experimental part:
Gravimetric Vapor Sorption (GVS): Samples were analyzed using a VTI corporation (now part of TA Instruments) SGA-100 with Cahn microbalance equipped with quartz sample and reference pans. Samples were dried in the SGA-100 under dry nitrogen for 5 hours at 25° C. followed by a moisture absorption step ramp from 5% relative humidity (RH) to 95% or 90% RH followed by a desorption step ramp back to 5% or 10% RH (all steps at 25° C.). The samples were held at each % RH step for 4 hours.

Series [4] deals with HaCaT cells. The experiment in a line: H2O2-induced reactive oxygen species (ROS) in HaCaT cells (CellROX deep red). Format: cell-based, human. The following applies: 3 hr pre-incubation then 250 μM H2O2, Hydroxyterosol 0.005%, niacinamide 4.5 mM, NRH several concentrations. How it is done: HaCaT cells were grown as described in example 23 and were seeded in 96-well plates (Nunc™ black with optical bottom, Thermo Fisher Scientific, Inc., Waltham, Mass.) with a density at 2×10^4 cells per well and 100 μl medium in each well, and grown overnight before treatments. Stock solutions of NRH and other test compounds were prepared and diluted to 2× of final treatment concentrations in DMEM medium in 96-well storage plate as indicated in the FIG. 11. HaCaT Cells were treated in triplicates by adding 100 μl of diluted solutions of test compounds (2×) to each well containing 100 μl medium already. Cells were incubated in the presence of test compounds for 3 hrs. At the end of 3 hr incubation, cells were washed once with 200 μl DPBS with Ca^++ and Mg^++ (Life Technologies) and then fed with 100 μl DMEM medium each well containing H2O2 at 250 μM (as a ROS (reactive oxygen species) inducer, Sigma). After 30 min incubation, cells were washed once with 200 μl DPBS with Ca^++ and Mg^++ and CellROX deep red reagent (2.5 mM stock solution, Life Technologies) was added to the medium to a final concentration of 5 μM. After 1 hr incubation at 37° C., 5% CO2, Cells were washed for 3 times with DPBS, fluorescence signal was read at Ex. 640 nm and Em. 665 nm in Biotek Synergy H4 microplate reader (BioTek, Winooski, Vt.). Untreated cells were served as controls (normalized to 1). All the treated samples were normalized to the untreated control.

In series [5] the test system is Reconstructed human epidermis (EpiDerm, EPI-200). The experiment in a line: UVB-induced inflammation mediators in reconstructed epidermal equivalents. Format: cell-based. The following applies: topical 1 hr pre-treatment, NRH 0.1% or niacinamide 3%, UVB 150 mJ/cm^2, media 6 hr post irradiation. From the text: Solar Ultraviolet (UV) light exposure on skin causes photoaging, sunburn, DNA damages and carcinogenesis. UV radiation (UVR) also results in inflammation, which can be measured in vitro by pro-inflammatory mediators, e.g., TNF-α, IL-8. The in vitro reconstructed human epidermis (RHE) model is used to evaluate the anti-inflammatory effect of NRH.
Reconstructed human epidermis (EpiDerm, EPI-200, made of normal human epidermal keratinocytes, MatTek, Ashland, Mass.), were placed into media (EPI-100-ASY, 1.0 ml/well of 6-well plates) and incubated overnight at 37° C./5% CO2. The media was replenished with fresh culture media prior to study. NRH at 0.1% and niacinamide at 3% in vehicle (50% H2O/35% ethanol/15% propylene glycol, v/v/v) were applied topically at 6 μl and then gently spread onto the skin equivalents (˜20 rotations) using the rubber side of a plunger of 1 ml syringe. Vehicle was served as an untreated control. After 1 hr pre-treatment with NRH, niacinamide, or vehicle control, the EpiDerm tissues were transferred to a sterile 6-well plate containing 1 ml of DPBS per well and then exposed to UVB at 150 mJ/cm^2. The Newport Solar Simulator System (Power unit 69920, and Lamp 91192-1000, Newport Corporate, Irvine, Calif.) was used as the UVB emitter to achieve a UVB irradiation of 150 mJ/cm^2. Measurement of the irradiation was taken using an ILT-1400 Handheld, Portable Radiometer/Photometer (International Light Technologies, Inc., Peabody, Mass.) with a UVB detector (SEL240/T2ACT5, 235-307 nm, International Light Technologies, Inc.). After UVB irradiation, EpiDerm tissues were transferred back to the 6-well plate containing media and incubated at 37° C./5% CO2 for 6 hours. At the end of the incubation (6 hr post UVB irradiation), culture media were collected for the measurement of IL-8, and TNF-α concentration by MagPix (Millipore, HCYTOMAG-60K).

Series [6] concerns Human dermal fibroblasts. The series can be described thus: TNFα-induced gene expression in dermal fibroblasts (QPCR). Format: cell-based. The following applies: TNFα 10 ng/ml, 30 hr. As for the experimental part:
Human dermal fibroblasts were grown in regular culture media as described in example 23 above and seeded in 12-well plates at 2×10^5 cells per well for overnight. Cells were then replenished with fresh medium and treated with TNFα (10 ng/ml) with and without NRH (200 μM) for 30 hr. At the end of the incubation, cells were washed once with HBSS with Ca^2+ and Mg^2+ (Life Technologies), and subject to RNA isolation and QPCR analyses.

[7] abbreviates: HaCaT in Vit B3 depleted culture medium, 3 hrs.

From patent US10485814B2, “Nicotinamide riboside analogs and pharmaceutical compositions and uses thereof” (GlaxoSmithKline Intellectual Property (No. 2) Limited, priority 2014, dated 2019) come the findings set out here.

`CCCCCCCCCCCCCCCC(=O)OC[C@H]1O[C@@H](N2C=CCC(C(N)=O)=C2)[C@H](O)[C@@H]1O` [NRH monoC16]: in series [1] (50 mM DMSO stock added to culture media, 150 μM), the “precipitation when stock solution added to the media” value is “noticeable precipitations occurred”. Further, the “precipitation in culture media” value in series [1] (stock complexed with defatted BSA, final BSA 100 μM) is “no precipitation was observed”. The NAD boosting activity entry in series [2] (HaCaT, 150 μM, 6 and 16 hrs) was “higher NAD boosting activity compared to all the other tested NR esters”. Further, the “activity after 24 hr compared with 6 hr treatment” value in series [2] (HaCaT, defatted BSA carrier) is recorded as “a higher activity was observed”. In addition, the NAD levels result in series [2] (HaCaT, different concentrations, defatted BSA carrier (100 μM), 6 and 24 hrs) is reported as “increases NAD levels in a dose dependent manner”. Further, the “NAD boosting activity relative to NRH” value in series [2] (HaCaT, same concentrations, defatted BSA carrier) was “slightly lower than that of NRH”. Also, the “GVS weight gain from the dried state” value in series [3] is reported as “approximately 7%”.

Turning to `NC(=O)c1cccnc1` [Niacinamide, pyridine-3-carboxamide, reference compound], in series [2] (HaCaT in DMEM medium with Vit B3, highest tested doses, 3 hrs), the NAD elevation result was “did not lead to NAD elevation”. Besides, in series [2] (setting [7]), the NAD level result is given as “increased NAD”, the “dose dependence of induction of NAD” value is on record as “dose-dependent” and the “induction of NAD (highest)” value is reported as approximately 1.5 fold. Also, the “H2O2-induced ROS” value in series [4] is “did not inhibit”. For the same compound, in series [5], the “UVB-induced IL-8” value is “not” and the “UVB-induced TNF-α” value is reported as “not”. In addition, in series [5] (listed as niacinamide), the “UVB-induced IL-8” value was “did not inhibit” and the “UVB-induced TNF-α” value is on record as “did not inhibit”.

On to TNF-α, for which, in series [6], the COX-2 gene expression result is “induced COX-2 gene expression”.
